Numbers after ± are expanded uncertainties.
Assay: molar heat capacity at constant pressure
Conditions: 101.33 kPa

CCC12CC3CC(CC(C3)C1)C2 [1-ethyladamantane]
Conditions	molar heat capacity at constant pressure [J/K/mol]
176.11 K, Crystal	129.2 ± 1.3
177.66 K, Crystal	130.08 ± 1.3
179.2 K, Crystal	131.06 ± 1.3
180.74 K, Crystal	132.22 ± 1.3
182.28 K, Crystal	133.41 ± 1.3
183.82 K, Crystal	134.59 ± 1.3
185.36 K, Crystal	135.72 ± 1.3
186.9 K, Crystal	136.96 ± 1.4
188.44 K, Crystal	138.08 ± 1.4
189.98 K, Crystal	139.07 ± 1.4
191.52 K, Crystal	140.27 ± 1.4
193.06 K, Crystal	141.34 ± 1.4
194.59 K, Crystal	142.65 ± 1.4
196.12 K, Crystal	143.78 ± 1.4
197.65 K, Crystal	144.95 ± 1.4
199.17 K, Crystal	146.07 ± 1.4
200.7 K, Crystal	147.28 ± 1.4
202.23 K, Crystal	148.71 ± 1.4
205.28 K, Crystal	150.89 ± 1.4
206.8 K, Crystal	152.02 ± 1.4
208.31 K, Crystal	152.99 ± 1.4
209.83 K, Crystal	154.47 ± 1.4
211.34 K, Crystal	155.33 ± 1.4
212.86 K, Crystal	156.65 ± 1.4
214.37 K, Crystal	157.99 ± 1.4
215.88 K, Crystal	159.85 ± 1.4
217.38 K, Crystal	161.46 ± 1.4
218.88 K, Crystal	163.87 ± 1.5
220.38 K, Crystal	167.18 ± 1.5
228.19 K, Liquid	213.96 ± 1.7
229.69 K, Liquid	214.76 ± 1.7
231.15 K, Liquid	216.02 ± 1.7
232.62 K, Liquid	216.73 ± 1.7
234.09 K, Liquid	217.38 ± 1.7
235.55 K, Liquid	218.44 ± 1.7
237.02 K, Liquid	218.96 ± 1.7
238.48 K, Liquid	219.64 ± 1.7
239.95 K, Liquid	220.45 ± 1.7
241.41 K, Liquid	222.1 ± 1.7
242.87 K, Liquid	222.52 ± 1.7
244.34 K, Liquid	223.6 ± 1.7
245.81 K, Liquid	224.53 ± 1.7
247.27 K, Liquid	225.06 ± 1.7
248.74 K, Liquid	225.78 ± 1.7
250.2 K, Liquid	226.74 ± 1.7
251.63 K, Liquid	227.78 ± 1.7
253.09 K, Liquid	228.8 ± 1.7
254.56 K, Liquid	229.67 ± 1.7
256.02 K, Liquid	230.53 ± 1.7
257.48 K, Liquid	231.41 ± 1.7
258.94 K, Liquid	232.48 ± 1.7
260.41 K, Liquid	233.18 ± 1.7
261.87 K, Liquid	234.01 ± 1.7
263.33 K, Liquid	235.14 ± 1.7
264.79 K, Liquid	236.35 ± 1.8
266.25 K, Liquid	237.17 ± 1.8
267.71 K, Liquid	238.18 ± 1.8
269.18 K, Liquid	238.96 ± 1.8
270.64 K, Liquid	240.09 ± 1.8
272.1 K, Liquid	240.99 ± 1.8
273.56 K, Liquid	242.19 ± 1.8
274.98 K, Liquid	242.56 ± 1.8
276.44 K, Liquid	243.82 ± 1.8
277.9 K, Liquid	244.9 ± 1.8
279.36 K, Liquid	245.49 ± 1.8
280.82 K, Liquid	246.39 ± 1.8
282.28 K, Liquid	247.77 ± 1.8
283.74 K, Liquid	248.37 ± 1.8
285.2 K, Liquid	249.48 ± 1.8
286.65 K, Liquid	250.83 ± 1.8
288.11 K, Liquid	251.75 ± 1.8
289.57 K, Liquid	252.24 ± 1.8
291.03 K, Liquid	253.03 ± 1.8
292.48 K, Liquid	254.46 ± 1.8
293.94 K, Liquid	255.49 ± 1.8
295.4 K, Liquid	256.65 ± 1.8
296.85 K, Liquid	257.72 ± 1.8
298.28 K, Liquid	258.45 ± 1.8
299.74 K, Liquid	259.79 ± 1.8
301.19 K, Liquid	260.37 ± 1.8
302.65 K, Liquid	261.81 ± 1.9
304.1 K, Liquid	262.96 ± 1.9
305.56 K, Liquid	263.59 ± 1.9
307.02 K, Liquid	264.26 ± 1.9
308.47 K, Liquid	265.38 ± 1.9
309.93 K, Liquid	266.44 ± 1.9
311.38 K, Liquid	267.77 ± 1.9
312.84 K, Liquid	268.68 ± 1.9
314.29 K, Liquid	268.95 ± 1.9
315.75 K, Liquid	271 ± 1.9
317.21 K, Liquid	271.58 ± 1.9
318.66 K, Liquid	272.26 ± 1.9
320.12 K, Liquid	273.19 ± 1.9
321.55 K, Liquid	274.59 ± 1.9
323 K, Liquid	275.5 ± 1.9
324.46 K, Liquid	276.62 ± 1.9
325.92 K, Liquid	277.16 ± 1.9
327.37 K, Liquid	278.45 ± 1.9
328.83 K, Liquid	279.65 ± 1.9
330.29 K, Liquid	280.77 ± 1.9
331.75 K, Liquid	281.88 ± 1.9
332.28 K, Liquid	282.18 ± 1.9
333.21 K, Liquid	282.65 ± 1.9
333.65 K, Liquid	283.08 ± 1.9
334.66 K, Liquid	283.89 ± 1.9
335.01 K, Liquid	284.12 ± 1.9
336.12 K, Liquid	284.89 ± 1.9
336.37 K, Liquid	285.08 ± 1.9
337.58 K, Liquid	285.8 ± 1.9
337.72 K, Liquid	286.15 ± 1.9
339.07 K, Liquid	287.35 ± 1.9
340.41 K, Liquid	288.22 ± 1.9
341.76 K, Liquid	289.11 ± 2
342.95 K, Liquid	290.27 ± 2
344.28 K, Liquid	291.29 ± 2
345.62 K, Liquid	292.19 ± 2
346.95 K, Liquid	292.96 ± 2
348.28 K, Liquid	294.44 ± 2
349.61 K, Liquid	295.79 ± 2
350.93 K, Liquid	296.76 ± 2
352.25 K, Liquid	297.68 ± 2
353.57 K, Liquid	298.69 ± 2
354.88 K, Liquid	299.75 ± 2
356.19 K, Liquid	300.53 ± 2
357.5 K, Liquid	301.48 ± 2
358.78 K, Liquid	302.8 ± 2
360.08 K, Liquid	303.82 ± 2
361.37 K, Liquid	304.5 ± 2
362.66 K, Liquid	305.46 ± 2
363.76 K, Liquid	305.56 ± 2
365.04 K, Liquid	306.42 ± 2
366.32 K, Liquid	307.62 ± 2
367.59 K, Liquid	308.68 ± 2
368.87 K, Liquid	309.55 ± 2
370.13 K, Liquid	310.5 ± 2
371.4 K, Liquid	311.2 ± 2
372.65 K, Liquid	312.25 ± 2
373.9 K, Liquid	313.52 ± 2

Source: the NIST ThermoML archive (doi:10.1016/j.jct.2004.06.009)
